Reference: patent US20100227841A1, “Patient populations and treatment methods” (Harbor BioSciencs, Inc., priority 2008, published 2010)

What was measured:
[1] = tested on: toll-like receptor 4 (TLR4) signaling; experiment: LPS-induced proinflammatory signaling in macrophages (Western blot, qNPA array); format: cell-based, mouse
Procedure: Methods. LPS and recombinant TNFα were obtained from Sigma. Anti-SREBP2 was obtained from Abcam (Cambridge, Mass.). Other primary antibodies were purchased from Cell Signaling Technology (Danvers, Mass.) unless otherwise indicated. Murine primary macrophages were elicited by intraperitoneal injection of thioglycollate (3 mL/mouse) in C57BL/6J mice. Macrophages were obtained from intraperitoneal lavage and washed twice. Cells were cultured in RPMI supplemented with 10% fetal bovine serum (FBS) for 3 days and then starved in RPMI supplemented with 0.5% FBS for overnight before the treatment. RAW 264.7 cells and 3T3-L1 cells were cultured essentially as described elsewhere (T. Yoshizaki, et al. Molecular and Cellular Biology, 29:1363-1374, 2009).
Gene expression analyses used total RNA extracted from tissue with Purelink total RNA purification system (Invitrogen) following the manufacturer's protocol. Total RNA (2 μg) was reverse-transcribed using iScript cDNA Synthesis Kit (Bio-Rad Laboratories, Hercules, Calif.). Primer sequences used in the PCR reactions were chosen based on the sequences available in GenBank. Primer sequences are available upon request. PCR was carried out using iTaq SYBR Green supermix (Bio-Rad Laboratories, Hercules, Calif.) on an MJ Research Chromo4 Real Time PCR system (Bio-Rad Laboratories BV, Hercules, Calif.). […] For Quantitative Nuclease Protection Assay (qNPA), cells were lysed in lysis buffer after various treatments. The qNPA ArrayPlate assays were performed by High Throughput Genomics, Inc.
For Western blots, cells were serum starved and pretreated with DMSO or 17α-ethynylandrost-5-ene-3β,7β,17β-triol (100 nM) for overnight before LPS (100 ng/ml) or TNFα (10 ng/ml) stimulation for the indicated times, and then were lysed in radioimmunoprecipitation buffer containing protease inhibitor cocktail (Roche) and phosphatase inhibitor cocktail (Sigma). Total cell lysates were separated by 10% SDS-PAGE. The blots were incubated first with blocking buffer (Tris-buffered saline containing 0.05% Tween 20 and 5.5% nonfat milk) followed by primary antibodies in blocking buffer or Tris-buffered saline containing 2% BSA. The bound antibodies were detected by horseradish peroxidase-conjugated secondary antibodies (1:4000, v/v) in blocking buffer and visualized by enhanced chemiluminescence.

[2] = tested on: pre-diabetic hyperglycemic patients and patients having type 2 diabetes; experiment: Biomarkers in 28-day clinical trial (serum CRP, adipokines; cytokines from LPS stimulated PBMC by ELISA); format: in vivo, human
Procedure: Groups of pre-diabetic hyperglycemic patients and patients having type 2 diabetes were treated for 28 days with the experimental drug 17α-ethynylandrost-5-ene-3β,7β,17β-triol (oral capsules) or with placebo. Dosages for the pre diabetic patients were 0 mg per day (placebo control; n=10), 5 mg once per day (n=9; cohort 1), 5 mg twice per day (n=8; cohort 2) or 10 mg twice per day (n=7; cohort 3). Placebos were obtained with each treatment cohort based on protocol randomization of 2 treated:1 placebo. The pre-diabetic patients were obese (body mass index ≧29 kg/m^2) and glucose intolerant (fasting plasma glucose <126 mg/dL; 2-hr post prandial glucose 140-200 mg/dL after 75 g oral glucose). The diabetic patients were dosed with 10 mg/day for 28 days (n=6; cohort 6). The glucose clamp protocol was performed on groups of patients dosed with 10 mg/day or 20 mg/day of drug at baseline, one day before drug treatment started (day −1), and one day after the last day of dosing with the drug (day 29). Patients with an M value of <5 mg glucose/kg/min (M<5) were considered insulin resistant and patients with an M value of >5 mg glucose/kg/min (M>5) were considered insulin sensitive or essentially normal for whole body glucose metabolism.
Levels of cytokine biomarkers from patients with M values measured by glucose clamp such as MCP1, TNFα, IL-6 and IL-1β were measured by ELISA as the amount of cytokine secreted from LPS stimulated peripheral blood mononuclear cells from the patients at baseline (day −1) and at 1 day after the last day of drug dosing (day 29). Levels of RBP4 and CRP protein were measured from patient serum.
The analysis of responders used standard analysis. Due to the cohort sizes and the ongoing basis of this clinical protocol, data for surrogates that corresponded to significance at p≦0.10 (trend) were considered positive evidence of surrogacy of the biomarker for the M<5 insulin resistant condition.

[3] = pretreatment 100 nM overnight, LPS 100 ng/ml, p<0.05
[4] = cohort 2, 3 and 6 M<5 patients vs M>5 patients, p<0.03

Compound: C#C[C@]1(O)CC[C@H]2[C@@H]3[C@@H](O)C=C4C[C@@H](O)CC[C@]4(C)[C@H]3CC[C@@]21C [17α-ethynylandrost-5-ene-3β,7β,17β-triol]
- LPS-induced activation of ERK [1, 3]: partially, but significantly, blocked
- LPS-induced activation of IKK [1, 3]: partially, but significantly, blocked
- LPS-induced activation of JNK [1, 3]: partially, but significantly, blocked
- LPS-induced activation of p38 [1, 3]: partially, but significantly, blocked
- IκB phosphorylation and degradation ([1]; pretreatment 100 nM, LPS): not influenced
- NFκB phosphorylation ([1]; pretreatment 100 nM, LPS): reduced
- LPS-induced transcription of Cxcl1 ([1]; qNPA array): significantly reduced
- LPS-induced transcription of Cxcl10 ([1]; qNPA array): significantly reduced
- LPS-induced transcription of IL-1β ([1]; qNPA array): significantly reduced
- LPS-induced transcription of IL-6 ([1]; qNPA array): significantly reduced
- LPS-induced transcription of IL-12 ([1]; qNPA array): significantly reduced
- LPS-induced transcription of Nos2 ([1]; qNPA array): significantly reduced
- LPS-induced transcription of TNFα ([1]; qNPA array): significantly reduced
- adiponectin ([2]; M<5 drug treated patients): not affected
- Resistin ([2]; M<5 drug treated subjects): increased much less
- decrease in CRP ([2]; M<5 patients compared to M>5 patients, p=0.094 exact Mann-Whitney): significant
- Leptin ([2]; all drug treated cohorts (decreased in placebo patients)): increased
- IL-1β (LPS stimulated PBMC) [2, 4]: highly significant decrease
- IL-6 (LPS stimulated PBMC) [2, 4]: highly significant decrease
- MCP1 (LPS stimulated PBMC) [2, 4]: highly significant decrease
- TNFα (LPS stimulated PBMC) [2, 4]: highly significant decrease
- Leptin ([2]; cohort 6 (diabetic patients, 10 mg/day), p=0.002): significantly increased
- TNFα (LPS stimulated PBMC) ([2]; day 29, drug treated M<5 vs drug treated M>5 patients, p=0.075): greater decrease
- MCP1 (LPS stimulated PBMC) ([2]; day 29, drug treated M<5 vs drug treated M>5 patients, p=0.093): greater decrease
- Resistin ([2]; drug treated subjects vs placebo control patients): increased less
- CRP ([2]; insulin resistant subjects (M<5) compared to placebo-treated subjects, p=0.018 exact Mann-Whitney): significantly decreased
